# Values of other authors in PMC11839852, “Preclinical comparison of (radio)lanthanides using mass spectrometry and nuclear imaging techniques: biodistribution of lanthanide-based tumor-targeting agents and lanthanides in ionic form” (European Journal of Nuclear Medicine and Molecular Imaging, 2024).
# Set-up: method as in doi:10.1007/BF02040048, PMID 16411740, PMID 16644751
# Conditions: coordination with DOTA chelator; cited from earlier work
row,Structure (SMILES),logK
1,O=C([O-])CN1CCN(CC(=O)[O-])CCN(CC(=O)[O-])CCN(CC(=O)[O-])CC1.[Eu+3] [Eu-DOTA],23.4
2,O=C([O-])CN1CCN(CC(=O)[O-])CCN(CC(=O)O)CCN(CC(=O)[O-])CC1.[Gd+3] [Gd-DOTA],24.6
3,O=C([O-])CN1CCN(CC(=O)[O-])CCN(CC(=O)[O-])CCN(CC(=O)[O-])CC1.[Lu+3] [Lu-DOTA],25.4
